{"source": "patent US20260022098A1", "about": "“BULLEYACONITINE A DERIVATIVE WITH ANALGESIC ACTIVITY, AND PREPARATION METHOD AND APPLICATION THEREOF” (priority 2023, published 2026)", "key": {"[1]": {"system": "LPS-induced RAW 264.7 cells", "experiment": "Griess assay, inhibition of NO release in LPS-induced RAW 264.7 cells", "type": "cell-based", "details": "Griess method, compound at 30 M (so in the source), 22 h", "description": "(§1) The effect of the compound to be tested on viability of RAW 264.7 cells at a concentration of […] was assessed through MTT assay (Methylthiazolyldiphenyl-tetrazolium bromide assay), and the inhibition on NO release in the inflammatory response of LPS-induced RAW 264.7 cells at 30 µM was determined through Griess method. Specific methods were described as follows.\nRAW264.7 cells beyond third passage were added to a culture medium and gently pipetted to detach, forming a cell suspension. 10 μL of the cell suspension was applied onto a hemocytometer slide for counting, and cells were seeded into a 96-well plate at a density of 3×10^4 cells per well with 100 μL of the cell suspension per well. After incubated at 37° C. with […] for 24 h, supernatant was removed. The blank group received 100 μL of DMSO (1/1000 dilution) per well, a LPS (lipopolysaccharide) group received 100 μL of DMSO (1/1000 dilution) per well, and the experimental groups received 100 μL of the test samples per well. The LPS group received 1 μg/ml of LPS by […] per well, and the experimental groups received […] of LPS by 3 μg per well. After 22 h, 50 μL of supernatant was transferred into another 96-well plate, added with Griess Reagent I in a NO assay kit by 50 μL per well, then added with Griess Reagent II by 50 μL per well, and subjected to an absorbance test at 562 nm. Nitric oxide (NO) concentration was calculated based on a standard curve, which was specifically as follows: NO inhibition rate (%)=(ODLPS−ODTest)/(ODLPS−ODBlank)×100)."}, "RAW 264.7 cells": {"system": "RAW 264.7 cells", "experiment": "MTT assay, viability of RAW 264.7 cells", "type": "cell-based", "details": "compound diluted to 30 mol/L (so in the source), 12 h", "description": "as §1\nAn MTT solution (5 mg/mL) was prepared with a PBS buffer, filter-sterilized through a 0.22 μm filter membrane, and stored protected from light at low temperature. Each compound was dissolved in DMSO to prepare a 50 mmol/L stock solution, and stored from light at low (frozen) temperature. The stock solution was diluted to 30 mol/L with DMEM (Dulbecco's modified Eagle's medium) containing 10% FBS (fetal bovine serum). RAW264.7 cells beyond third passage were added to a culture medium and gently pipetted to detach, forming a cell suspension. 10 μL of the cell suspension was applied onto a hemocytometer slide for counting, and cells were seeded into 96-well plates at a density of 6×10^3 cells per well with 100 μL of the cell suspension per well. After incubated at 37° C. with 5% CO2 for 24 h, supernatant was removed. A zero-adjustment group (CO group) received 100 μL of medium per well, the blank group (CK group) received 100 μL of DMSO (1/1000 dilution) per well, and the experimental groups received 100 μL of the test samples per well. After 12 h, supernatant was removed, and […] of MTT solution was added into each well at 120 μL per well. After incubated in COz at a constant temperature for 4 h, supernatant was removed, and DMSO was added into each well by 150 μL per well. The mixture was shaken at 50 r/min for 10 min and subjected to an absorbance test at 492 nm. Relative cell viability (x) was calculated through a formula as follows: relative cell viability (%)=(ODTest−ODCO)/(ODCK−ODCO)×100%."}, "[2]": {"experiment": "Acute toxicity / median lethal dose (LD50) determination, subcutaneous injection", "type": "in vivo, mice", "set-up": "key to Acute toxicity: if death occurred, (+) represented as positive; if no death occurred, (−) represented as negative", "details": "both sexes, Kunming, mouse, in vivo, sc; mice, subcutaneous, survival within 24 h, Probit regression; >X = no death or toxic symptoms at X mg/kg", "in_short": "(§2)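 Kunming mice (22±2 g, 1:1 male:female, fasted 12 h), 10 per group, given compound subcutaneously at 0.1 mL/10 g in saline after 1:1 molar dissolution in 0.1 mol/L HCl. At least 5 proportional dose groups set from a 20 mg/kg pilot; 24 h survival, LD50 by Probit regression.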"}, "Kunming mice [3]": {"system": "Kunming mice", "experiment": "Acute toxicity / median lethal dose (LD50) determination, subcutaneous injection", "type": "in vivo", "set-up": "key to Acute toxicity: if death occurred, (+) represented as positive; if no death occurred, (−) represented as negative", "details": "mice administered 20 mg/kg subcutaneously, presence of death within 24 h", "in_short": "as §2"}, "Kunming mice [4]": {"system": "Kunming mice", "experiment": "Calculation of therapeutic index (TI = LD50/ED50)", "type": "in vivo", "description": "(3) Calculation of Therapeutic Index (TI)\nThe therapeutic index of each compound was calculated based on the median effective dose and the median lethal dose, which were specifically as follows: therapeutic index (TI)=median lethal dose (LD50)/median effective dose (ED50)."}, "Kunming mice [5]": {"system": "Kunming mice", "experiment": "Analgesic activity by acetic acid-induced writhing method (writhing inhibition rate, ED50)", "type": "in vivo", "details": "Mus musculus, sc, acetic acid-induced writhing, mice, subcutaneous; for ED50: Probit regression, read-out: ED50; for inhibition in vivo at 0.05 mg/kg: dosing concentration 0.05 mg/kg; for inhibition in vivo at 0.05 mg/kg / inhibition in vivo at 0.5 mg/kg: read-out: Analgesia rate (%) ± SEM; for inhibition in vivo at 0.5 mg/kg: dosing concentration 0.5 mg/kg", "in_short": "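Kunming mice (22±2 g, 1:1 sex, 12 h fasted, 10/group) got compound s.c. (dissolved 1:1 molar with 0.1 mol/L HCl, diluted in saline); 0.7% acetic acid i.p. 15 min later, writhes counted over 15 min. Inhibition rate vs saline blank; ED50 by Probit regression over ≥5 doses.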"}}, "note": "Marks after values point to notes of the source that are not given here.", "data": [{"smiles": "Cc1ccc(-c2cc(C(F)(F)F)nn2-c2ccc(S(N)(=O)=O)cc2)cc1", "note": "[Celecoxib, reference compound]", "values": [{"measurement": "Inflammatory NO inhibition rate", "setting": "[1]", "value": "74 ± 2.2", "unit": "%"}, {"measurement": "RAW cell viability", "setting": "RAW 264.7 cells", "value": "93.09 ± 2.14", "unit": "ns %"}]}, {"smiles": "CCO[C@]12C[C@H](OC)[C@@]3(OC(=O)C4CCCCC4)CC(C1[C@H]3OC(=O)C1CCCCC1)[C@]13C4[C@@H](OC)C2[C@H]1N(CC)C[C@]4(COC)CC[C@@H]3OC", "note": "(stereo partly drawn) [Compound 5]", "values": [{"measurement": "LD50", "setting": "[2]", "value": "> 100", "unit": "mg/kg"}, {"measurement": "Acute toxicity", "setting": "Kunming mice [3]", "value": "−"}, {"measurement": "TI", "setting": "Kunming mice [4]", "value": ">1204.8"}, {"measurement": "ED50", "setting": "Kunming mice [5]", "value": 0.083, "unit": "mg/kg"}, {"measurement": "inhibition in vivo at 0.05 mg/kg", "setting": "Kunming mice [5]", "value": "49.7 ± 1.1", "unit": "%"}, {"measurement": "RAW cell viability", "setting": "RAW 264.7 cells", "value": "28.05 ± 4.84", "unit": "%"}]}, {"smiles": "CCN1C[C@]2(COC)CC[C@H](OC)[C@@]34C5C[C@]6(OC(=O)c7ccco7)[C@@H](OC)C[C@@](OC(C)=O)(C5[C@H]6OC(=O)c5ccc(OC)cc5)C([C@H](OC)C23)[C@@H]14", "note": "(stereo partly drawn) [Compound 12]", "values": [{"measurement": "Acute toxicity", "setting": "Kunming mice [3]", "value": "−"}, {"measurement": "Inflammatory NO inhibition rate", "setting": "[1]", "value": "17 ± 5.14", "unit": "%"}, {"measurement": "inhibition in vivo at 0.05 mg/kg", "setting": "Kunming mice [5]", "value": "45.7 ± 0.6", "unit": "%"}, {"measurement": "inhibition in vivo at 0.5 mg/kg", "setting": "Kunming mice [5]", "value": "54.2 ± 1.4", "unit": "%"}, {"measurement": "RAW cell viability", "setting": "RAW 264.7 cells", "value": "119.75 ± 1.11***^ %"}]}, {"smiles": "CCO[C@]12C[C@H](OC)[C@@]3(OC(=O)c4ccc(OC)cc4)CC(C1[C@H]3OC(=O)c1ccc(OC)cc1)[C@]13C4[C@@H](OC)C2[C@H]1N(CC)C[C@]4(COC)CC[C@@H]3OC", "note": "(stereo partly drawn) [Compound 13]", "values": [{"measurement": "LD50", "setting": "[2]", "value": "> 100", "unit": "mg/kg"}, {"measurement": "Acute toxicity", "setting": "Kunming mice [3]", "value": "−"}, {"measurement": "TI", "setting": "Kunming mice [4]", "value": ">1219.5"}, {"measurement": "ED50", "setting": "Kunming mice [5]", "value": 0.082, "unit": "mg/kg"}, {"measurement": "inhibition in vivo at 0.05 mg/kg", "setting": "Kunming mice [5]", "value": "49.4 ± 1.3", "unit": "%"}, {"measurement": "RAW cell viability", "setting": "RAW 264.7 cells", "value": "8.29 ± 2.8", "unit": "%"}]}, {"smiles": "CCO[C@]12C[C@H](OC)[C@@]3(OC(=O)C4CCCCC4)CC(C1[C@H]3OC(=O)c1ccc(OC)cc1)[C@]13C4[C@@H](OC)C2[C@H]1N(CC)C[C@]4(COC)CC[C@@H]3OC", "note": "(stereo partly drawn) [Compound 14]", "values": [{"measurement": "Acute toxicity", "setting": "Kunming mice [3]", "value": "−"}, {"measurement": "inhibition in vivo at 0.05 mg/kg", "setting": "Kunming mice [5]", "value": "40.3 ± 1.7", "unit": "%"}, {"measurement": "inhibition in vivo at 0.5 mg/kg", "setting": "Kunming mice [5]", "value": "44.4 ± 2.1", "unit": "%"}, {"measurement": "RAW cell viability", "setting": "RAW 264.7 cells", "value": "13.36 ± 0.9***^ %"}]}, {"smiles": "CCO[C@]12C[C@H](OC)[C@@]3(OC(=O)c4cccs4)CC(C1[C@H]3OC(=O)c1cccs1)[C@]13C4[C@@H](OC)C2[C@H]1N(CC)C[C@]4(COC)CC[C@@H]3OC", "note": "(stereo partly drawn) [Compound 17]", "values": [{"measurement": "Acute toxicity", "setting": "Kunming mice [3]", "value": "−"}, {"measurement": "Inflammatory NO inhibition rate", "setting": "[1]", "value": "47 ± 3.49", "unit": "%"}, {"measurement": "inhibition in vivo at 0.05 mg/kg", "setting": "Kunming mice [5]", "value": "44.44 ± 0.4", "unit": "%"}, {"measurement": "inhibition in vivo at 0.5 mg/kg", "setting": "Kunming mice [5]", "value": "54.7 ± 1.5", "unit": "%"}, {"measurement": "RAW cell viability", "setting": "RAW 264.7 cells", "value": "87.25 ± 2.09", "unit": "ns %"}]}, {"smiles": "CCO[C@]12C[C@H](OC)[C@@]3(OC(=O)C4CCOCC4)CC(C1[C@H]3OC(=O)C1CCOCC1)[C@]13C4[C@@H](OC)C2[C@H]1N(CC)C[C@]4(COC)CC[C@@H]3OC", "note": "(stereo partly drawn) [Compound 23]", "values": [{"measurement": "LD50", "setting": "[2]", "value": "> 100", "unit": "mg/kg"}, {"measurement": "Acute toxicity", "setting": "Kunming mice [3]", "value": "−"}, {"measurement": "TI", "setting": "Kunming mice [4]", "value": ">1369.9"}, {"measurement": "ED50", "setting": "Kunming mice [5]", "value": 0.073, "unit": "mg/kg"}, {"measurement": "inhibition in vivo at 0.05 mg/kg", "setting": "Kunming mice [5]", "value": "57.9 ± 0.6", "unit": "%"}, {"measurement": "RAW cell viability", "setting": "RAW 264.7 cells", "value": "81.35 ± 3.48", "unit": "%"}]}, {"smiles": "CCO[C@]12C[C@H](OC)[C@@]3(OC(=O)C4CCOCC4)CC(C1[C@H]3OC(=O)c1ccc(OC)cc1)[C@]13C4[C@@H](OC)C2[C@H]1N(CC)C[C@]4(COC)CC[C@@H]3OC", "note": "(stereo partly drawn) [Compound 24]", "values": [{"measurement": "Acute toxicity", "setting": "Kunming mice [3]", "value": "−"}, {"measurement": "Inflammatory NO inhibition rate", "setting": "[1]", "value": "8 ± 2.69", "unit": "%"}, {"measurement": "inhibition in vivo at 0.05 mg/kg", "setting": "Kunming mice [5]", "value": "46.1 ± 1.7", "unit": "%"}, {"measurement": "inhibition in vivo at 0.5 mg/kg", "setting": "Kunming mice [5]", "value": "50.9 ± 1.7", "unit": "%"}, {"measurement": "RAW cell viability", "setting": "RAW 264.7 cells", "value": "94.97 ± 7.74", "unit": "ns %"}]}, {"smiles": "CCO[C@]12C[C@H](OC)[C@@]3(OC(=O)c4cccnc4)CC(C1[C@H]3OC(=O)c1ccc(OC)cc1)[C@]13C4[C@@H](OC)C2[C@H]1N(CC)C[C@]4(COC)CC[C@@H]3OC", "note": "(stereo partly drawn) [Compound 28]", "values": [{"measurement": "Acute toxicity", "setting": "Kunming mice [3]", "value": "−"}, {"measurement": "inhibition in vivo at 0.05 mg/kg", "setting": "Kunming mice [5]", "value": "36.1 ± 2.1", "unit": "%"}, {"measurement": "RAW cell viability", "setting": "RAW 264.7 cells", "value": "83.03 ± 4.69**^ %"}]}]}
